According to PubChem BioAssay AID248 (DTP/NCI, 2004):
Values joined by “and” are separate entries in the source; they are usually repeats but may differ in a detail not shown here. Equal values may be shown once. Inconclusive results and toxic doses are left out. Rule as the data show it: active = T/C of 150% or more; inactive = T/C below 125%.

Tested on: L1210 leukemia ip in BDF1 mice, survival T/C
Test: NCI In Vivo Anticancer Drug Screen. Data for tumor model L1210 Leukemia (intraperitoneal) in B6D2F1 (BDF1) mice
Conditions: endpoint: mean survival time, higher = longer survival
Outline: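 Read-out is survival time, reported as the treated-group measurement over the vehicle-control measurement.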

[1] = dose: 100.0 mg/kg/injection, schedule: Q01DX009 (ip), vehicle: Klucel (hydroxypropylcellulose) (HPC)
[2] = dose: 200.0 mg/kg/injection, schedule: Q01DX009 (ip), vehicle: Klucel (hydroxypropylcellulose) (HPC)
[3] = dose: 400.0 mg/kg/injection, schedule: Q01DX009 (ip), vehicle: Klucel (hydroxypropylcellulose) (HPC)
[4] = dose: 100.0 mg/kg/injection, schedule: Q04DX003 (ip), vehicle: Klucel (hydroxypropylcellulose) (HPC)
[5] = dose: 200.0 mg/kg/injection, schedule: Q04DX003 (ip), vehicle: Klucel (hydroxypropylcellulose) (HPC)
[6] = dose: 400.0 mg/kg/injection, schedule: Q04DX003 (ip), vehicle: Klucel (hydroxypropylcellulose) (HPC)
[7] = dose: 100.0 mg/kg/injection, schedule: Q04DX003 (ip), vehicle: saline
[8] = dose: 200.0 mg/kg/injection, schedule: Q04DX003 (ip), vehicle: saline
[9] = dose: 25.0 mg/kg/injection, schedule: Q01DX009 (ip), vehicle: saline with Tween-80
[10] = dose: 50.0 mg/kg/injection, schedule: Q01DX009 (ip), vehicle: saline with Tween-80
[11] = dose: 100.0 mg/kg/injection, schedule: Q01DX009 (ip), vehicle: saline with Tween-80
[12] = dose: 200.0 mg/kg/injection, schedule: Q01DX009 (ip), vehicle: saline with Tween-80
[13] = dose: 25.0 mg/kg/injection, schedule: Q01DX009 (ip), vehicle: Klucel (hydroxypropylcellulose) (HPC)
[14] = dose: 50.0 mg/kg/injection, schedule: Q01DX009 (ip), vehicle: Klucel (hydroxypropylcellulose) (HPC)

Measured: T/C

O=[N+]([O-])c1ccc(NC(=S)Nc2cccc(C(F)(F)F)c2)cc1
inactive: [1] 90 % of control | [2] 91 % of control | [3] 100 % of control

Nc1ccccc1/C=C(\C(=O)O)c1cccc(Cl)c1
inactive: [4] 99 % of control | [5] 101 % of control | [6] 108 % of control

Cn1cnc2c(C(F)(F)F)nc(N)nc21
inactive: [7] 94 % of control | [8] 102 % of control

Cc1nc(N)c2c(n1)C(C)N(C(=O)c1ccccc1)C2 (stereo unspecified)
inactive: dose: 100.0 mg/kg/injection, schedule: Q01DX001 (ip), vehicle: carboxymethylcellulose (CMC) 103 % of control | dose: 200.0 mg/kg/injection, schedule: Q01DX001 (ip), vehicle: carboxymethylcellulose (CMC) 100 % of control | dose: 400.0 mg/kg/injection, schedule: Q01DX001 (ip), vehicle: carboxymethylcellulose (CMC) 97 % of control

CC1SCSCS1
inactive: [4] 111 % of control | [5] 88 % of control | [6] 98 % of control

Cc1ccc(S(=O)(=O)N(c2ccccc2-c2ccccc2)C(C)C(=O)O)cc1 (stereo unspecified)
inactive: dose: 100.0 mg/kg/injection, schedule: Q01DX001 (ip), vehicle: saline 98 % of control | dose: 200.0 mg/kg/injection, schedule: Q01DX001 (ip), vehicle: saline 103 % of control | dose: 400.0 mg/kg/injection, schedule: Q01DX001 (ip), vehicle: saline 102 % of control

Nc1ccc(/C=C\C(=O)NCc2cccnc2)cc1
inactive: [9] 109 % of control | [10] 102 % of control | [11] 93 % of control and 90 % of control

CN1CCN(Cc2nc3cccc4c3c([n+]2[O-])-c2ccccc2-4)CC1
inactive: dose: 12.5 mg/kg/injection, schedule: Q01DX009 (ip), vehicle: saline with Tween-80 101 % of control | [9] 105 % of control | [10] 103 % of control | [11] 114 % of control | [12] 123 % of control

CC1(C)CC(=O)CC(C)(C)N1O
inactive: [1] 94 % of control | [4] 101 % of control | [2] 98 % of control | [5] 94 % of control | [3] 100 % of control | [6] 94 % of control

O=C(N/N=C/C=C\c1ccccc1)C(=O)N/N=C/C=C/c1ccccc1
inactive: [4] 94 % of control | [5] 89 % of control | [6] 94 % of control

CC(C)N(C(=O)COc1ccc(Cl)cc1Cl)c1ccccc1
inactive: [11] 102 % of control | dose: 100.0 mg/kg/injection, schedule: Q04DX003 (ip), vehicle: saline with Tween-80 96 % of control | [12] 106 % of control | dose: 200.0 mg/kg/injection, schedule: Q04DX003 (ip), vehicle: saline with Tween-80 96 % of control | dose: 400.0 mg/kg/injection, schedule: Q01DX009 (ip), vehicle: saline with Tween-80 124 % of control | dose: 400.0 mg/kg/injection, schedule: Q04DX003 (ip), vehicle: saline with Tween-80 91 % of control

COc1cc2c(cc1OC)C(=O)CC2
inactive: dose: 50.0 mg/kg/injection, schedule: Q01DX001 (ip), vehicle: other 91 % of control | dose: 100.0 mg/kg/injection, schedule: Q01DX001 (ip), vehicle: other 98 % of control | dose: 200.0 mg/kg/injection, schedule: Q01DX001 (ip), vehicle: other 98 % of control | dose: 400.0 mg/kg/injection, schedule: Q01DX001 (ip), vehicle: other 96 % of control

CCOC(=O)C(C)NC(=O)C(C)NC(=O)OCc1ccccc1 (stereo unspecified)
inactive: dose: 100.0 mg/kg/injection, schedule: Q01DX009 (ip), vehicle: gum acacia 101 % of control | dose: 100.0 mg/kg/injection, schedule: Q04DX003 (ip), vehicle: gum acacia 103 % of control | dose: 200.0 mg/kg/injection, schedule: Q01DX009 (ip), vehicle: gum acacia 93 % of control | dose: 200.0 mg/kg/injection, schedule: Q04DX003 (ip), vehicle: gum acacia 101 % of control | dose: 400.0 mg/kg/injection, schedule: Q01DX009 (ip), vehicle: gum acacia 87 % of control | dose: 400.0 mg/kg/injection, schedule: Q04DX003 (ip), vehicle: gum acacia 92 % of control

O=C(NCCc1ccccc1)Nc1cc([N+](=O)[O-])ccc1F
inactive: [4] 94 % of control | [5] 96 % of control | [6] 102 % of control

CSc1nc(C)c(Br)c(N2CC2)n1
inactive: dose: 50.0 mg/kg/injection, schedule: Q01DX Z (ip), vehicle: methylcellulose (MC) 95 % of control

CNc1ccccc1[N+](=O)[O-]
inactive: [1] 100 % of control | dose: 100.0 mg/kg/injection, schedule: Q01DX009 (ip), vehicle: other 104 % of control | [4] 96 % of control | dose: 100.0 mg/kg/injection, schedule: Q04DX003 (ip), vehicle: other 107 % of control | [2] 98 % of control | dose: 200.0 mg/kg/injection, schedule: Q01DX009 (ip), vehicle: other 95 % of control | [5] 95 % of control | dose: 200.0 mg/kg/injection, schedule: Q04DX003 (ip), vehicle: other 97 % of control | [3] 104 % of control | dose: 400.0 mg/kg/injection, schedule: Q01DX009 (ip), vehicle: other 95 % of control | [6] 98 % of control | dose: 400.0 mg/kg/injection, schedule: Q04DX003 (ip), vehicle: other 113 % of control

CSc1ccc(SCCOC(=O)Nc2ccc(Cl)cc2Cl)cc1
inactive: [10] 91 % of control | [11] 93 % of control | [12] 98 % of control

Cc1c(C)c2c(c(C)c1O)CC(CC(=O)CO)CO2 (stereo unspecified)
inactive: dose: 100.0 mg/kg/injection, schedule: Q01DX001 (ip), vehicle: saline with Tween-80 97 % of control | dose: 200.0 mg/kg/injection, schedule: Q01DX001 (ip), vehicle: saline with Tween-80 95 % of control | dose: 400.0 mg/kg/injection, schedule: Q01DX001 (ip), vehicle: saline with Tween-80 97 % of control

C[n+]1ccn(CCCl)c1
inactive: dose: 25.0 mg/kg/injection, schedule: Q01DX Z (ip), vehicle: saline 96 % of control | dose: 50.0 mg/kg/injection, schedule: Q01DX Z (ip), vehicle: saline 93 % of control | dose: 100.0 mg/kg/injection, schedule: Q01DX Z (ip), vehicle: saline 96 % of control

Cc1ccccc1NC(=O)CI
inactive: dose: 12.5 mg/kg/injection, schedule: Q01DX009 (ip), vehicle: Klucel (hydroxypropylcellulose) (HPC) 97 % of control | [13] 103 % of control | [14] 101 % of control

NN1CC(=O)NC1=O
inactive: [7] 100 % of control | [8] 102 % of control | dose: 400.0 mg/kg/injection, schedule: Q04DX003 (ip), vehicle: saline 100 % of control

CCC(=O)C(CC)c1ccc(OC)cc1OC (stereo unspecified)
inactive: [1] 93 % of control | [4] 103 % of control | [2] 95 % of control | [5] 101 % of control | [3] 98 % of control | [6] 103 % of control

CSc1nnc(N)s1
inactive: [13] 91 % of control | [14] 94 % of control | [1] 94 % of control | dose: 100.0 mg/kg/injection, schedule: Q04DX002 (ip), vehicle: Klucel (hydroxypropylcellulose) (HPC) 94 % of control and 91 % of control | [2] 99 % of control | dose: 200.0 mg/kg/injection, schedule: Q04DX002 (ip), vehicle: Klucel (hydroxypropylcellulose) (HPC) 97 % of control and 98 % of control | [3] 98 % of control | dose: 400.0 mg/kg/injection, schedule: Q04DX002 (ip), vehicle: Klucel (hydroxypropylcellulose) (HPC) 103 % of control | dose: 800.0 mg/kg/injection, schedule: Q04DX002 (ip), vehicle: Klucel (hydroxypropylcellulose) (HPC) 87 % of control
